Source: US20090068290A1, “BIFEPRUNOX DOSES FOR TREATING SCHIZOPHRENIA” (priority 2006, published 2009)

What was measured:
Type in all cases: in vivo, human
[1] = test system: adult subjects with schizophrenia; assay: BPRS total score, Clinical Study Three
Description: (§1) SECONDARY OBJECTIVES To assess the efficacy of bifeprunox in treating schizophrenia using the Positive Symptom sub-scale score of the PANSS, the Negative Symptom sub-scale score of the PANSS, the General Psychopathology sub-scale of the PANSS, Brief Psychiatric Rating Scale (BPRS) total score derived from the PANSS, BPRS psychosis score derived from the PANSS, the Clinical Global Impression Severity of Illness score (CGI-S), the Clinical Global Impression Improvement score (CGI-I), CGI-I responder rate, PANSS responder rate based on the PANSS total score, Calgary Depression Scale for Schizophrenia (CDSS), and Subject Satisfaction rating.
(§2) There were four treatment arms in this study, approximately 144 subjects per arm. […] After completing the Single-Blind Placebo Lead-in Period of at least three days, bifeprunox-treated subjects were titrated from 0.25 mg up to 20 mg/day or 30 mg/day according to a standardized titration scheme over a seven- or eight-day period, respectively. When the assigned dose was reached, subjects were maintained at that dose for the remainder of the six week treatment period. […] Subjects were hospitalized (if not already inpatients) after eligibility for study entry was verified, starting from the Screening Visit until at least 10 days after Baseline. Subjects could be hospitalized longer than 10 days if considered medically necessary by the Investigator. Rating scale assessments for efficacy and abnormal movement disorders were done weekly except for Week 5. […] Subject satisfaction with study medication was assessed at Week 6.

[2] = test system: adult subjects with schizophrenia; assay: PANSS positive symptom subscale score, Clinical Study Two; settings: LOCF, ITT; for PANSS Positive Symptom Subscale Score, Trt Effect (bifeprunox—placebo): ANCOVA
Description: Rating scale assessments were performed weekly, except for week 5, to measure the change from baseline to endpoint of the PANSS total score. Other assessments included: PANSS positive symptom subscale score, PANSS negative symptom subscale score, PANSS general pschopathology subscale score, BPRS total score, BPRS psychosis score, the CGI-S score, the CGI-I score, responder rates based on the PANSS total score, and the Calgary Depression Scale for Schizophrenia (CDSS). […]
Subjects who completed this study had the option to continue in the long-term. […] Risperidone-treated subjects were titrated from 2 mg to 6 mg daily over a three-day period and were subsequently maintained at 6 mg/day for the remainder of the treatment period. […] Blood samples were also obtained at Screening/Baseline, Week 3, and Week 6 for clinical laboratory assessments.

[3] = test system: adult subjects with schizophrenia; assay: PANSS positive symptom subscale score, Clinical Study Three; settings: LOCF, ITT; for PANSS Positive Symptom Subscale Score, Trt Effect (bifeprunox—placebo): ANCOVA
Description: as §1, §2

[4] = test system: adult subjects with schizophrenia; assay: CGI Severity of Illness score, Clinical Study Three; settings: for CGI Severity of Illness Score, Trt Effect / Change from Baseline in CGI Severity of Illness Score, Mean (SD) / Change from Baseline in CGI Severity of Illness Score, Median / mean change (SD) from Baseline to Endpoint in CGI severity of illness score: LOCF; for CGI severity of illness score, treatment effect (bifeprunox—placebo): Endpoint LOCF; for mean change (SD) from Baseline to Endpoint in CGI severity of illness score: ITT
Description: as §1, §2

[5] = Bifeprunox 30 mg, Week 3, LOCF, ITT population
[6] = Bifeprunox 30 mg, Week 4, LOCF, ITT population
[7] = Bifeprunox 30 mg, Week 6/Endpoint, LOCF, ITT population
[8] = Bifeprunox 30 mg, Week 6/Endpoint
[9] = Bifeprunox 40 mg, Week 6/Endpoint
[10] = Bifeprunox 20 mg, Week 6/Endpoint

O=c1[nH]c2cccc(N3CCN(Cc4cccc(-c5ccccc5)c4)CC3)c2o1 [Bifeprunox, 7-[4-([1,1′-biphenyl]-3-ylmethyl)-1-piperazinyl]-2(3H)-benzoxazolone]
Change from Baseline in BPRS Total Score, Median ([1]; Bifeprunox 30 mg, Week 2, LOCF, ITT population): −6 | Change from Baseline in BPRS Total Score, Mean (SD) [1, 5]: −6.7 (10.7) | Change from Baseline in BPRS Total Score, Median [1, 5]: −7 | Change from Baseline in BPRS Total Score, Mean (SD) [1, 6]: −7.3 (10.9) | Change from Baseline in BPRS Total Score, Median [1, 6]: −8 | Change from Baseline in BPRS Total Score, Mean (SD) [1, 7]: −7.9 (12.0) | Change from Baseline in BPRS Total Score, Median [1, 7]: −9 | Change from Baseline in BPRS Total Score, Trt Effect (bifeprunox—placebo) [1, 7]: −1.1 | mean change (SD) from Baseline to Endpoint in BPRS total score ([1]; bifeprunox 20 mg, LOCF, ITT): −8.5 (11.9) | BPRS total score, treatment effect (bifeprunox—placebo) ([1]; bifeprunox 30 mg, Endpoint LOCF): −1.1 | Change from Baseline in PANSS Positive Symptom Subscale Score, Mean (SD) ([2]; Bifeprunox 30 mg, Week 1): −2.3 (3.6) | Change from Baseline in PANSS Positive Symptom Subscale Score, Median ([2]; Bifeprunox 30 mg, Week 1): −2 | Change from Baseline in PANSS Positive Symptom Subscale Score, Mean (SD) ([2]; Bifeprunox 30 mg, Week 2): −4.1 (5.3) | Change from Baseline in PANSS Positive Symptom Subscale Score, Median ([2]; Bifeprunox 30 mg, Week 2): −3 | Change from Baseline in PANSS Positive Symptom Subscale Score, Mean (SD) ([2]; Bifeprunox 30 mg, Week 3): −4.5 (5.6) | Change from Baseline in PANSS Positive Symptom Subscale Score, Median ([2]; Bifeprunox 30 mg, Week 3): −4 | Change from Baseline in PANSS Positive Symptom Subscale Score, Mean (SD) ([2]; Bifeprunox 30 mg, Week 4): −4.4 (5.9) | Change from Baseline in PANSS Positive Symptom Subscale Score, Median ([2]; Bifeprunox 30 mg, Week 4): −4 | Change from Baseline in PANSS Positive Symptom Subscale Score, Mean (SD) [2, 8]: −4.5 (6.6) | Change from Baseline in PANSS Positive Symptom Subscale Score, Median [2, 8]: −4 | PANSS Positive Symptom Subscale Score, Trt Effect (bifeprunox—placebo) [2, 8]: −1.9 | Change from Baseline in PANSS Positive Symptom Subscale Score, Mean (SD) ([2]; Bifeprunox 40 mg, Week 1): −2.8 (3.9) | Change from Baseline in PANSS Positive Symptom Subscale Score, Median ([2]; Bifeprunox 40 mg, Week 1): −2 | Change from Baseline in PANSS Positive Symptom Subscale Score, Mean (SD) ([2]; Bifeprunox 40 mg, Week 2): −3.6 (5.7) | Change from Baseline in PANSS Positive Symptom Subscale Score, Median ([2]; Bifeprunox 40 mg, Week 2): −3 | Change from Baseline in PANSS Positive Symptom Subscale Score, Mean (SD) ([2]; Bifeprunox 40 mg, Week 3): −4.1 (6.3) | Change from Baseline in PANSS Positive Symptom Subscale Score, Median ([2]; Bifeprunox 40 mg, Week 3): −4 | Change from Baseline in PANSS Positive Symptom Subscale Score, Mean (SD) ([2]; Bifeprunox 40 mg, Week 4): −3.7 (6.6) | Change from Baseline in PANSS Positive Symptom Subscale Score, Median ([2]; Bifeprunox 40 mg, Week 4): −3 | Change from Baseline in PANSS Positive Symptom Subscale Score, Mean (SD) [2, 9]: −4.2 (6.9) | Change from Baseline in PANSS Positive Symptom Subscale Score, Median [2, 9]: −4 | PANSS Positive Symptom Subscale Score, Trt Effect (bifeprunox—placebo) [2, 9]: −1.7 | Change from Baseline in PANSS Positive Symptom Subscale Score, Mean (SD) ([3]; Bifeprunox 20 mg, Week 1): −1.6 (3.7) | Change from Baseline in PANSS Positive Symptom Subscale Score, Median ([3]; Bifeprunox 20 mg, Week 1): −2 | Change from Baseline in PANSS Positive Symptom Subscale Score, Mean (SD) ([3]; Bifeprunox 20 mg, Week 2): −3.0 (4.7) | Change from Baseline in PANSS Positive Symptom Subscale Score, Median ([3]; Bifeprunox 20 mg, Week 2): −3 | Change from Baseline in PANSS Positive Symptom Subscale Score, Mean (SD) ([3]; Bifeprunox 20 mg, Week 3): −3.8 (5.2) | Change from Baseline in PANSS Positive Symptom Subscale Score, Median ([3]; Bifeprunox 20 mg, Week 3): −3 | Change from Baseline in PANSS Positive Symptom Subscale Score, Mean (SD) ([3]; Bifeprunox 20 mg, Week 4): −4.2 (5.7) | Change from Baseline in PANSS Positive Symptom Subscale Score, Median ([3]; Bifeprunox 20 mg, Week 4): −4 | Change from Baseline in PANSS Positive Symptom Subscale Score, Mean (SD) [3, 10]: −4.3 (6.1) | Change from Baseline in PANSS Positive Symptom Subscale Score, Median [3, 10]: −4 | PANSS Positive Symptom Subscale Score, Trt Effect (bifeprunox—placebo) [3, 10]: −1.1 | Change from Baseline in PANSS Positive Symptom Subscale Score, Mean (SD) ([3]; Bifeprunox 30 mg, Week 1): −2.0 (3.8) | Change from Baseline in PANSS Positive Symptom Subscale Score, Median ([3]; Bifeprunox 30 mg, Week 1): −2 | Change from Baseline in PANSS Positive Symptom Subscale Score, Mean (SD) ([3]; Bifeprunox 30 mg, Week 2): −2.8 (5.1) | Change from Baseline in PANSS Positive Symptom Subscale Score, Median ([3]; Bifeprunox 30 mg, Week 2): −3 | Change from Baseline in PANSS Positive Symptom Subscale Score, Mean (SD) ([3]; Bifeprunox 30 mg, Week 3): −3.6 (6.0) | Change from Baseline in PANSS Positive Symptom Subscale Score, Median ([3]; Bifeprunox 30 mg, Week 3): −4 | Change from Baseline in PANSS Positive Symptom Subscale Score, Mean (SD) ([3]; Bifeprunox 30 mg, Week 4): −4.0 (6.3) | Change from Baseline in PANSS Positive Symptom Subscale Score, Median ([3]; Bifeprunox 30 mg, Week 4): −4 | Change from Baseline in PANSS Positive Symptom Subscale Score, Mean (SD) [3, 8]: −4.2 (6.8) | Change from Baseline in PANSS Positive Symptom Subscale Score, Median [3, 8]: −5 | PANSS Positive Symptom Subscale Score, Trt Effect (bifeprunox—placebo) [3, 8]: −0.7 | CGI Severity of Illness Score, Trt Effect ([4]; 20 mg versus placebo, Week 6/Endpoint): −0.13 | Change from Baseline in CGI Severity of Illness Score, Mean (SD) ([4]; 20 mg, Week 1): −0.23 (0.63) | Change from Baseline in CGI Severity of Illness Score, Median ([4]; 20 mg, Week 1): 0.0 | Change from Baseline in CGI Severity of Illness Score, Mean (SD) ([4]; 20 mg, Week 2): −0.48 (0.81) | Change from Baseline in CGI Severity of Illness Score, Median ([4]; 20 mg, Week 2): 0.0 | Change from Baseline in CGI Severity of Illness Score, Mean (SD) ([4]; 20 mg, Week 3): −0.59 (0.89) | Change from Baseline in CGI Severity of Illness Score, Median ([4]; 20 mg, Week 3): −1.0 | Change from Baseline in CGI Severity of Illness Score, Mean (SD) ([4]; 20 mg, Week 4): −0.65 (0.95) | Change from Baseline in CGI Severity of Illness Score, Median ([4]; 20 mg, Week 4): −1.0 | Change from Baseline in CGI Severity of Illness Score, Mean (SD) ([4]; 20 mg, Week 6/Endpoint): −0.63 (0.98) | Change from Baseline in CGI Severity of Illness Score, Median ([4]; 20 mg, Week 6/Endpoint): −1.0 | CGI Severity of Illness Score, Trt Effect ([4]; 30 mg versus placebo, Week 6/Endpoint): −0.09 | Change from Baseline in CGI Severity of Illness Score, Mean (SD) ([4]; 30 mg, Week 1): −0.26 (0.60) | Change from Baseline in CGI Severity of Illness Score, Median ([4]; 30 mg, Week 1): 0.0 | Change from Baseline in CGI Severity of Illness Score, Mean (SD) ([4]; 30 mg, Week 2): −0.41 (0.76) | Change from Baseline in CGI Severity of Illness Score, Median ([4]; 30 mg, Week 2): 0.0 | Change from Baseline in CGI Severity of Illness Score, Mean (SD) ([4]; 30 mg, Week 3): −0.50 (0.90) | Change from Baseline in CGI Severity of Illness Score, Median ([4]; 30 mg, Week 3): 0.0 | Change from Baseline in CGI Severity of Illness Score, Mean (SD) ([4]; 30 mg, Week 4): −0.57 (0.89) | Change from Baseline in CGI Severity of Illness Score, Median ([4]; 30 mg, Week 4): −1.0 | Change from Baseline in CGI Severity of Illness Score, Mean (SD) ([4]; 30 mg, Week 6/Endpoint): −0.62 (1.03) | Change from Baseline in CGI Severity of Illness Score, Median ([4]; 30 mg, Week 6/Endpoint): −1.0 | CGI severity of illness score, treatment effect (bifeprunox—placebo) ([4]; bifeprunox 20 mg): −0.13 | mean change (SD) from Baseline to Endpoint in CGI severity of illness score ([4]; bifeprunox 20 mg): −0.63 (0.98) | CGI severity of illness score, treatment effect (bifeprunox—placebo) ([4]; bifeprunox 30 mg): −0.09 | mean change (SD) from Baseline to Endpoint in CGI severity of illness score ([4]; bifeprunox 30 mg): −0.62 (1.03)
